Target: CFTR-mediated chloride transport (Homo sapiens, UniProt P13569)
Type: cell-based
Settings: enteroid cells incubated with test compound 18-24 hours, acute 10 μM forskolin and 300 nM Compound III; for Max. Activity: % of chloride transport with 3 μM Compound A, 3 μM Compound II and 300 nM acute Compound III triple combination control
Procedure, shortened: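 Membrane-potential fluorescence AUC over 15 min quantified CFTR chloride transport after acute forskolin (10 μM), IBMX (100 μM) and Compound III (300 nM) in chloride-free buffer. Human enteroid cells were pretreated with compound for 18–24 h; % Activity is relative to 3 μM Compound A + 3 μM Compound II + 300 nM Compound III.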

Sequence of CFTR-mediated chloride transport (P13569 whole entry, looked up): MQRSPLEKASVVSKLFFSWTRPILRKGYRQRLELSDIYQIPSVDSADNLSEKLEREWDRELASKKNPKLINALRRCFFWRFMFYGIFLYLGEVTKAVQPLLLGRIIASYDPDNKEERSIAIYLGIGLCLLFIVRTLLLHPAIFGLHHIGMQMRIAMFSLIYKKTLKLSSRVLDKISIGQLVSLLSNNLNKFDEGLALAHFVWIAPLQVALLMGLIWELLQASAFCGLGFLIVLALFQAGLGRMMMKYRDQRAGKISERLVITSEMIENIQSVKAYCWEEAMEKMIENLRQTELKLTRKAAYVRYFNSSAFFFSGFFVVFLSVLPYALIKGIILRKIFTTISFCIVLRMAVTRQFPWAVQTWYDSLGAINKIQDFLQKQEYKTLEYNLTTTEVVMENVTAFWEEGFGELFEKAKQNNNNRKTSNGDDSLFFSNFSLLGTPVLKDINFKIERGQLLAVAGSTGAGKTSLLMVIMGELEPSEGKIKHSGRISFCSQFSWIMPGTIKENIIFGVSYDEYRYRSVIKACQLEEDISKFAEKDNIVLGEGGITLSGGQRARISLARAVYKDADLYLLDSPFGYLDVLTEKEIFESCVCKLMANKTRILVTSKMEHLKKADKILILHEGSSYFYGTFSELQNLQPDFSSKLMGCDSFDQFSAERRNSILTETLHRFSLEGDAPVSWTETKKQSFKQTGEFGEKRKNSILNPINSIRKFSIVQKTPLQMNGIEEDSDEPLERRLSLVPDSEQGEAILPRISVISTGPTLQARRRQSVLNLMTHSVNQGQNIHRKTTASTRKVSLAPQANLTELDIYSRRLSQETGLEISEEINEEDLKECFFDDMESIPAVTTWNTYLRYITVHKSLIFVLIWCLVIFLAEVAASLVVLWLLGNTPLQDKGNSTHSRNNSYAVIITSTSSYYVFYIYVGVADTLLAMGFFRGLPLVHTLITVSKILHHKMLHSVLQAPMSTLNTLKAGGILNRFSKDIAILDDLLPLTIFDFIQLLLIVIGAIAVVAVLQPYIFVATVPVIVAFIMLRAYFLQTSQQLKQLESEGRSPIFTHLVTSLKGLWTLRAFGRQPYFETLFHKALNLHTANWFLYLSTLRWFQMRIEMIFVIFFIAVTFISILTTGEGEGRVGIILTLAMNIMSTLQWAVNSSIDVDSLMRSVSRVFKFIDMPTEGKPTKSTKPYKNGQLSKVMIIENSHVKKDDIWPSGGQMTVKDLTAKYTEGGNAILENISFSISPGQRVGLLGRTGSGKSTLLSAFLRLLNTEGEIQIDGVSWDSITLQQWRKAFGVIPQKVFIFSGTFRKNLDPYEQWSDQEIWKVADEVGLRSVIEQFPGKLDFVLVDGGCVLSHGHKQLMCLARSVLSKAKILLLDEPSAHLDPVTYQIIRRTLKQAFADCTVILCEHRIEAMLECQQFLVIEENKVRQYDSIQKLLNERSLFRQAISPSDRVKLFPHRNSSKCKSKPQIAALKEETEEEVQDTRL

Structure (SMILES)	EC50	Max. Activity
CC1(C)C[C@@H]2CN1c1nc(-n3ccc(OCCC(C4CC4)C4CC4)n3)ccc1C(=O)NS(=O)(=O)c1cccc(n1)NCCO2 (single isomer, unassigned) [Compound 162, 8-[3-(3,3-dicyclopropylpropoxy)-1H-pyrazol-1-yl]-12,12-dimethyl-15-oxa-2λ^6-thia-3,9,11,18,23-pentaazatetracyclo[17.3.1.111,14.05,10]tetracosa-1(23),5,7,9,19,21-hexaene-2,2,4-trione]	1000 to 3000 nM	++ (++ is 30-60%)
CC1(C)C[C@H]2CCCCOc3ccc(cn3)S(=O)(=O)NC(=O)c3ccc(-n4ccc(OCCC5(C(F)(F)F)CC5)n4)nc3N1C2 (single isomer, unassigned) [Compound 104, 12,12-dimethyl-8-(3-{2-[1-(trifluoromethyl)cyclopropyl]ethoxy}-1H-pyrazol-1-yl)-19-oxa-2λ^6-thia-3,9,11,21-tetraazatetracyclo[18.2.2.111,14.05,10]pentacosa-1(23),5,7,9,20(24),21-hexaene-2,2,4-trione]	> 3000 nM	+ (+ is <30%)
Cc1c2cnn1CCCC1CN(c3nc(-n4ccc(OCC(C)(C)C(F)(F)F)n4)ccc3C(=O)NS2(=O)=O)C(C)(C)C1 (stereo not shown) [Compound 280, 20,20,22-trimethyl-4-[3-(3,3,3-trifluoro-2,2-dimethylpropoxy)-1H-pyrazol-1-yl]-10λ^6-thia-1,3,9,13,14-pentaazatetracyclo[16.2.1.111,14.02,7]docosa-2,4,6,11(22),12-pentaene-8,10,10-trione]	< 1000 nM	++ (++ is 30-60%)
C[C@@H]1CC[C@H]2CN(c3nc(N4CCN(CCC(C)(C)C)C4=O)ccc3C(=O)NS(=O)(=O)c3cccc(n3)N1)C(C)(C)C2 (single isomer, unassigned) [Compound 215, 8-[3-(3,3-dimethylbutyl)-2-oxoimidazolidin-1-yl]-12,12,17-trimethyl-2λ^6-thia-3,9,11,18,23-pentaazatetracyclo[17.3.1.111,14.05,10]tetracosa-1(22),5,7,9,19(23),20-hexaene-2,2,4-trione]	> 3000 nM	+ (+ is <30%)
CC1(C)C[C@@H]2CCCNc3cccc(n3)S(=O)(=O)NC(=O)c3ccc(N4CCN(C56CC7CC(CC(C7)C5)C6)C4=O)nc3N1C2 [Compound 230, (14S)-8-[3-(Adamantan-1-yl)-2-oxoimidazolidin-1-yl]-12,12-dimethyl-2λ^6-thia-3,9,11,18,23-pentaazatetracyclo[17.3.1.111,14.05,10]tetracosa-1(22),5,7,9,19(23),20-hexaene-2,2,4-trione]	< 1000 nM	+ (+ is <30%)
CC(C)(C)CCC1CCN(c2ccc3c(n2)N2C[C@@H](CCCNc4cccc(n4)S(=O)(=O)NC3=O)CC2(C)C)C1=O (stereo partly drawn) [Compound 79, (14S)-8-[3-(3,3-dimethylbutyl)-2-oxopyrrolidin-1-yl]-12,12-dimethyl-2λ^6-thia-3,9,11,18,23-pentaazatetracyclo[17.3.1.111,14.05,10]tetracosa-1(23),5,7,9,19,21-hexaene-2,2,4-trione]	< 1000 nM	++ (++ is 30-60%)
CC1(C)C[C@@H]2CCCNc3ccc(O)c(n3)S(=O)(=O)NC(=O)c3ccc(-n4ccc(OCCC5C6(CC6)C56CC6)n4)nc3N1C2 [Compound 260, (14S)-8-[3-(2-{dispiro[2.0.2.1]heptan-7-yl}ethoxy)-1H-pyrazol-1-yl]-22-hydroxy-12,12-dimethyl-2λ^6-thia-3,9,11,18,23-pentaazatetracyclo[17.3.1.111,14.05,10]tetracosa-1(22),5,7,9,19(23),20-hexaene-2,2,4-trione]	< 1000 nM	+++ (+++ is >60%)
CC1(C)C[C@@H]2CCCNc3cccc(n3)S(=O)(=O)NC(=O)c3ccc(N4CC[C@H](OCCC5(C(F)(F)F)CC5)C4=O)nc3N1C2 (single isomer, unassigned) [Compound 173]	< 1000 nM	+++ (+++ is >60%)
CC1(C)C[C@H]2CCCn3cc(cn3)S(=O)(=O)NC(=O)c3ccc(-n4ccc(OCCC5(C(F)(F)F)CC5)n4)nc3N1C2 (single isomer, unassigned) [Compound 118, 20,20-Dimethyl-4-(3-{2-[1-(trifluoromethyl)cyclopropyl]ethoxy}-1H-pyrazol-1-yl)-10λ^6-thia-1,3,9,13,14-pentaazatetracyclo[16.2.1.111,14.02,7]docosa-2,4,6,11(22),12-pentaene-8,10,10-trione]	1000 to 3000 nM	+ (+ is <30%)
CC1(C)C[C@@H]2CN1c1nc(-n3ccc(OCCC4(C(F)(F)F)CC4)n3)ccc1C(=O)NS(=O)(=O)c1cccc(n1)NCCO2 (single isomer, unassigned) [Compound 75, 12,12-dimethyl-8-(3-{2-[1-(trifluoromethyl)cyclopropyl]ethoxy}-1H-pyrazol-1-yl)-15-oxa-2λ^6-thia-3,9,11,18,23-pentaazatetracyclo[17.3.1.111,14.05,10]tetracosa-1(22),5(10),6,8,19(23),20-hexaene-2,2,4-trione]	< 1000 nM	+++ (+++ is >60%)
CC1(C)C[C@@H]2CCCNc3nc(ccc3O)S(=O)(=O)NC(=O)c3ccc(-n4ccc(OCCCC5(C(F)(F)F)CC5)n4)nc3N1C2 [Compound 255, (14S)-20-hydroxy-12,12-dimethyl-8-(3-{3-[1-(trifluoromethyl)cyclopropyl]propoxy}-1H-pyrazol-1-yl)-2λ^6-thia-3,9,11,18,23-pentaazatetracyclo[17.3.1.111,14.05,10]tetracosa-1(22),5,7,9,19(23),20-hexaene-2,2,4-trione]	< 1000 nM	++ (++ is 30-60%)
CC1(C)CC2CCCNc3cccc(n3)S(=O)(=O)NC(=O)c3ccc(-n4ccc(OCC5C(C)(C)C5(C)C)n4)nc3N1C2 (stereo not shown) [Compound 42, 12,12-dimethyl-8-{3-[(2,2,3,3-tetramethylcyclopropyl)methoxy]-1H-pyrazol-1-yl}-2λ^6-thia-3,9,11,18,23-pentaazatetracyclo[17.3.1.111,14.05,10]tetracosa-1(22),5,7,9,19(23),20-hexaene-2,2,4-trione]	< 1000 nM	+++ (+++ is >60%)
CC1(C)C[C@H]2CCCn3ccc(n3)S(=O)(=O)NC(=O)c3ccc(-n4ccc(OCCCC5(C(F)(F)F)CC5)n4)nc3N1C2 (single isomer, unassigned) [Compound 166, 20,20-dimethyl-4-(3-{3-[1-(trifluoromethyl)cyclopropyl]propoxy}-1H-pyrazol-1-yl)-10λ^6-thia-1,3,9,14,22-pentaazatetracyclo[16.2.1.111,14.02,7]docosa-2(7),3,5,11(22),12-pentaene-8,10,10-trione]	< 1000 nM	+++ (+++ is >60%)
CC1(C)C[C@H]2CCCNc3cccc(n3)S(=O)(=O)NC(=O)c3ccc(-n4ccc(OCCC5(C(F)(F)F)CC5)n4)nc3N1C2 [Compound 13, (14R)-12,12-dimethyl-8-(3-{2-[1-(trifluoromethyl)cyclopropyl]ethoxy}-1H-pyrazol-1-yl)-2λ^6-thia-3,9,11,18,23-pentaazatetracyclo[17.3.1.111,14.05,10]tetracosa-1(23),5,7,9,19,21-hexaene-2,2,4-trione]	1000 to 3000 nM	+ (+ is <30%)
CC(C)(C)CCCO[C@H]1CCN(c2ccc3c(n2)N2C[C@@H](CCCNc4cccc(n4)S(=O)(=O)NC3=O)CC2(C)C)C1=O (single isomer, unassigned) [Compound 247]	< 1000 nM	+++ (+++ is >60%)
CC1(C)C[C@H]2CCNc3cccc(n3)S(=O)(=O)NC(=O)c3ccc(-n4ccc(OCC5(C(F)(F)F)CC5)n4)nc3N1C2 (single isomer, unassigned) [Compound 5, 7,7-dimethyl-11-(3-{[1-(trifluoromethyl)cyclopropyl]methoxy}-1H-pyrazol-1-yl)-17λ^6-thia-2,8,10,16,22-pentaazatetracyclo[16.3.1.1(5,8).0(9,14)]tricosa-1(21),9(14),10,12,18(22),19-hexaene-15,17,17-trione]	< 1000 nM	+++ (+++ is >60%)
CC1(C)C[C@H]2CCCCCNc3cccc(n3)S(=O)(=O)NC(=O)c3ccc(-n4ccc(OCCC5(C(F)(F)F)CC5)n4)nc3N1C2 (single isomer, unassigned) [Compound 63, 12,12-dimethyl-8-(3-{2-[1-(trifluoromethyl)cyclopropyl]ethoxy}-1H-pyrazol-1-yl)-2λ^6-thia-3,9,11,20,25-pentaazatetracyclo[19.3.1.111,14.05,10]hexacosa-1(24),5,7,9,21(25),22-hexaene-2,2,4-trione]	< 1000 nM	+++ (+++ is >60%)
CC1(C)C[C@H]2CCCCOc3ccc(cc3)S(=O)(=O)NC(=O)c3ccc(-n4ccc(OCCC5(C(F)(F)F)CC5)n4)nc3N1C2 (single isomer, unassigned) [Compound 96, 12,12-dimethyl-8-(3-{2-[1-(trifluoromethyl)cyclopropyl]ethoxy}-1H-pyrazol-1-yl)-19-oxa-2λ^6-thia-3,9,11-triazatetracyclo[18.2.2.111,14.05,10]pentacosa-1(22),5,7,9,20,23-hexaene-2,2,4-trione]	> 3000 nM	+ (+ is <30%)
CC(C)(C)CCO[C@H]1CCN(c2ccc3c(n2)N2C[C@@H](CCCNc4cccc(n4)S(=O)(=O)NC3=O)CC2(C)C)C1=O (single isomer, unassigned) [Compound 170]	< 1000 nM	++ (++ is 30-60%)
CC(C)(C)CCCO[C@H]1CCN(c2ccc3c(n2)N2C[C@@H](CCCNc4cccc(n4)S(=O)(=O)NC3=O)CC2(C)C)C1=O (single isomer, unassigned) [Compound 246]	< 1000 nM	++ (++ is 30-60%)

— patent US11866450B2, “Modulators of Cystic Fibrosis Transmembrane Conductance regulator, pharmaceutical compositions, methods of treatment, and process for making the modulators” (priority 2018, dated 2024)
